Tests used:
Assay in all cases: MIC/MBC broth dilution
Assay type in all cases: cell-based
[1] = test system: Staphylococcus aureus (ATCC 23235)
Procedure, shortened: (§1)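 Broth dilution per CLSI in 96-well plates: complexes at 50, 70, 100, 150 and 200 µg/mL with bacteria, 37 °C overnight. Growth read at 600 nm; MIC/MBC (µg/mL) assigned against vehicle (DMSO) growth control in LB medium. Three independent experiments in triplicate.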

[2] = test system: Enterococcus faecalis (ATCC 19433)
Procedure, shortened: as §1

[3] = test system: Staphylococcus epidermidis (ATCC 14990)
Procedure, shortened: as §1

| SMILES | M.B.C. S. aureus [1] | M.I.C. S. aureus [1] | M.B.C. E. faecalis [2] | M.I.C. E. faecalis [2] | M.B.C. S. epidermidis [3] | M.I.C. S. epidermidis [3] |
| --- | --- | --- | --- | --- | --- | --- |
| Cn1c(=O)c2c(n(C)[c]([Au-][I])[n+]2CC(O)c2ccccc2)n(C)c1=O (racemic) [AuL1, 1,3,7-Trimethylxanthin-9-[(2-hydroxy-2-phenyl)ethyl-8-ylidene]Au(I) Iodide] | > 200 µg/mL | 150 µg/mL | > 200 µg/mL | 150 µg/mL | > 150 µg/mL | 125 µg/mL |
| CC(=O)[O][Ag-][c]1n(C)c2c(c(=O)n(C)c(=O)n2C)[n+]1C1CCCCC1O (stereo not drawn) [AgL2OAc, 1,3,7-Trimethylxanthin-9-[cyclohexan-2-ol-8-ylidene]Ag(I) Acetate] | > 150 µg/mL | 100 µg/mL | > 200 µg/mL | 150 µg/mL | > 125 µg/mL | 100 µg/mL |

— article PMC10931745 (International Journal of Molecular Sciences, 2024)
